According to PubChem BioAssay AID1963851 (Molecular Pharmacology Branch, DTP, NCI, 2024):

System: 188146-221-R-J1-PDC complex spheroid viability
Test: Anticancer human tumor 188146-221-R-J1-PDC patient-derived colon adenocarcinoma cell line growth inhibition [POLQ]
Details: for IC50: curve of first compound; for viability, T/C: stronger effect = lower value
How it was run: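 Patient-derived tumour cells were co-cultured with HUVEC and mesenchymal stem cells as multicellular spheroids at 37 °C. They were treated with POLQ inhibitors (novobiocin, ART-558, RP6685) alone or combined with other agents. Top concentrations were at or near clinical Cmax (otherwise 10 microM; SN-38 at 1 microM), decreasing in half-log steps.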

[1] = second compound 0.0316 µM, first compound 0.0316 µM
[2] = second compound 0.0316 µM, first compound 0.1 µM
[3] = second compound 0.0316 µM, first compound 0.316 µM
[4] = second compound 0.0316 µM, first compound 1 µM
[5] = second compound 0.0316 µM, first compound 3.16 µM
[6] = second compound 0.0316 µM, first compound 10 µM
[7] = second compound 0.1 µM, first compound 0.0316 µM
[8] = second compound 0.1 µM, first compound 0.1 µM
[9] = second compound 0.1 µM, first compound 0.316 µM
[10] = second compound 0.1 µM, first compound 1 µM
[11] = second compound 0.1 µM, first compound 3.16 µM
[12] = second compound 0.1 µM, first compound 10 µM
[13] = second compound 0.316 µM, first compound 0.0316 µM
[14] = second compound 0.316 µM, first compound 0.1 µM
[15] = second compound 0.316 µM, first compound 0.316 µM
[16] = second compound 0.316 µM, first compound 1 µM
[17] = second compound 0.316 µM, first compound 3.16 µM
[18] = second compound 0.316 µM, first compound 10 µM
[19] = second compound 1 µM, first compound 0.0316 µM
[20] = second compound 1 µM, first compound 0.1 µM
[21] = second compound 1 µM, first compound 0.316 µM
[22] = second compound 1 µM, first compound 1 µM
[23] = second compound 1 µM, first compound 3.16 µM
[24] = second compound 1 µM, first compound 10 µM
[25] = second compound 3.16 µM, first compound 0.0316 µM
[26] = second compound 3.16 µM, first compound 0.1 µM
[27] = second compound 3.16 µM, first compound 0.316 µM
[28] = second compound 3.16 µM, first compound 1 µM
[29] = second compound 3.16 µM, first compound 3.16 µM
[30] = second compound 3.16 µM, first compound 10 µM
[31] = second compound 10 µM, first compound 0.0316 µM
[32] = second compound 10 µM, first compound 0.1 µM
[33] = second compound 10 µM, first compound 0.316 µM
[34] = second compound 10 µM, first compound 1 µM
[35] = second compound 10 µM, first compound 3.16 µM
[36] = second compound 10 µM, first compound 10 µM
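Note: spheroids exposed to compounds for seven days.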
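Throughout, for viability, T/C: 100% = DMSO vehicle control viability.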

CC1COCCN1c1cc(C2(O)CC3CCC(C2)O3)c2cnn(-c3ccn[nH]3)c2n1 (stereo unspecified) + Cc1cccc(N(C)C(=O)C2C(O)CCN2c2nc(C)cc(C(F)(F)F)c2C#N)c1
IC50 (second compound 0.0316 µM): 0.422 µM | IC50 (second compound 0.1 µM): 0.322 µM | IC50 (second compound 0.316 µM): 0.365 µM | IC50 (second compound 1 µM): 0.426 µM | IC50 (second compound 3.16 µM): 0.259 µM | IC50 (second compound 10 µM): 0.19 µM | viability, T/C [1]: 83.2% | viability, T/C [2]: 67.8% | viability, T/C [3]: 61.5% | viability, T/C [4]: 27.6% | viability, T/C [5]: 19.2% | viability, T/C [6]: 7.58% | viability, T/C [7]: 95.3% | viability, T/C [8]: 75.7% | viability, T/C [9]: 51.1% | viability, T/C [10]: 26.6% | viability, T/C [11]: 16.8% | viability, T/C [12]: 7.79% | viability, T/C [13]: 91.9% | viability, T/C [14]: 80.2% | viability, T/C [15]: 52.4% | viability, T/C [16]: 27.4% | viability, T/C [17]: 17.4% | viability, T/C [18]: 9.2% | viability, T/C [19]: 89.2% | viability, T/C [20]: 71.9% | viability, T/C [21]: 56.1% | viability, T/C [22]: 36% | viability, T/C [23]: 19.2% | viability, T/C [24]: 7.67% | viability, T/C [25]: 94.8% | viability, T/C [26]: 68.4% | viability, T/C [27]: 46.4% | viability, T/C [28]: 27.3% | viability, T/C [29]: 22.8% | viability, T/C [30]: 8.6% | viability, T/C [31]: 80.7% | viability, T/C [32]: 60.3% | viability, T/C [33]: 43.4% | viability, T/C [34]: 24% | viability, T/C [35]: 23.9% | viability, T/C [36]: 9.35%

CCc1cc2c(N3CCc4c(cc(Cn5ccnc5)cc4-c4cn(C)nc4C(F)(F)F)C3=O)ccnc2c(OC)n1 + Cc1cccc(N(C)C(=O)C2C(O)CCN2c2nc(C)cc(C(F)(F)F)c2C#N)c1
IC50 (second compound 0.0316 µM): 9.01 µM | IC50 (second compound 0.1 µM): > 10 µM | IC50 (second compound 0.316 µM): 8.88 µM | IC50 (second compound 1 µM): 7.87 µM | IC50 (second compound 3.16 µM): 8.27 µM | IC50 (second compound 10 µM): 5.92 µM | viability, T/C [1]: 90.5% | viability, T/C [2]: 92% | viability, T/C [3]: 93.5% | viability, T/C [4]: 102% | viability, T/C [5]: 67.8% | viability, T/C [6]: 48.2% | viability, T/C [7]: 117% | viability, T/C [8]: 78.8% | viability, T/C [9]: 97.8% | viability, T/C [10]: 90.8% | viability, T/C [11]: 77.8% | viability, T/C [12]: 49.8% | viability, T/C [13]: 107% | viability, T/C [14]: 114% | viability, T/C [15]: 85.2% | viability, T/C [16]: 78.6% | viability, T/C [17]: 66.5% | viability, T/C [18]: 47.1% | viability, T/C [19]: 107% | viability, T/C [20]: 98.2% | viability, T/C [21]: 91.5% | viability, T/C [22]: 105% | viability, T/C [23]: 71% | viability, T/C [24]: 44.4% | viability, T/C [25]: 90.1% | viability, T/C [26]: 91.4% | viability, T/C [27]: 91.6% | viability, T/C [28]: 81.7% | viability, T/C [29]: 66.6% | viability, T/C [30]: 46.7% | viability, T/C [31]: 92.5% | viability, T/C [32]: 82.5% | viability, T/C [33]: 74.1% | viability, T/C [34]: 69.6% | viability, T/C [35]: 61.2% | viability, T/C [36]: 40.7%

O=C(Nc1ccc(O)c(NS(=O)(=O)c2ccc(F)cc2)c1)c1ccc(-c2ccccc2)cc1 + Cc1cccc(N(C)C(=O)C2C(O)CCN2c2nc(C)cc(C(F)(F)F)c2C#N)c1
IC50 (second compound 0.0316 µM): > 10 µM | IC50 (second compound 0.1 µM): > 10 µM | IC50 (second compound 0.316 µM): > 10 µM | IC50 (second compound 1 µM): > 10 µM | IC50 (second compound 3.16 µM): > 10 µM | IC50 (second compound 10 µM): > 10 µM | viability, T/C [1]: 100% | viability, T/C [2]: 103% | viability, T/C [3]: 109% | viability, T/C [4]: 107% | viability, T/C [5]: 100% | viability, T/C [6]: 50.2% | viability, T/C [7]: 103% | viability, T/C [8]: 92.1% | viability, T/C [9]: 93.5% | viability, T/C [10]: 87.8% | viability, T/C [11]: 106% | viability, T/C [12]: 60.6% | viability, T/C [13]: 102% | viability, T/C [14]: 98.1% | viability, T/C [15]: 103% | viability, T/C [16]: 80.2% | viability, T/C [17]: 83.2% | viability, T/C [18]: 75.2% | viability, T/C [19]: 98.5% | viability, T/C [20]: 90.9% | viability, T/C [21]: 92.6% | viability, T/C [22]: 86.9% | viability, T/C [23]: 84.1% | viability, T/C [24]: 65.2% | viability, T/C [25]: 96% | viability, T/C [26]: 92.3% | viability, T/C [27]: 89.5% | viability, T/C [28]: 99% | viability, T/C [29]: 90.2% | viability, T/C [30]: 52.1% | viability, T/C [31]: 92.3% | viability, T/C [32]: 91.3% | viability, T/C [33]: 101% | viability, T/C [34]: 87.3% | viability, T/C [35]: 79.6% | viability, T/C [36]: 51.2%
